Assay results from patent US20040248915A1 (priority 2003, published 2004).
Values joined by “and” are separate entries in the source; they are usually repeats but may differ in a detail not shown here. Identical values can stand only once. Like-named read-outs stand apart in the source and are kept apart here.

Key:
[1] = rats, 10 mg/kg injection; cited from earlier work
advanced solid tumors = experiment: Phase I continuous infusion in advanced solid tumors: toxicity; assay type: in vivo, human
Experimental: This is a dose and infusion length finding study to achieve a minimum steady-state plasma concentration of 21 ng/mL (0.1 μM) for 72-120 hr. The starting dose of 3 mg/m^2/d was determined from PK simulation modeling using data obtained from Phase I studies (30-minute infusions). The starting infusion duration was 48 hr with escalation to 72 hr, 96 hr and 120 hr in cohorts of 3-6 patients.
In the results evaluated to date, 12 adults with refractory solid tumors have been treated. The first cohort (4 patients) received drug for 48 h (total dose 6 mg/m^2) with no DLT. The second cohort of patients was treated for 72 hr (total 9 mg/m^2). […] The 2 patients with DLT had the highest plasma concentrations. Enrollment is ongoing at 2.25 mg/m^2/d for 96 h (total 9 mg/m^2).

[2] = parameters: species or system mice; conditions: athymic CD-1 (nu/nu) nude, mouse, in vivo
Experimental: Blood was centrifuged at 10,000 g for 10 minutes and plasma was collected and frozen at −20° C. until further analysis. An aliquot of mouse plasma (100 μl) was precipitated with 300 μl of acetonitrile containing 3TC® (Shire BioChem) as internal standard. After centrifugation at 3,000 ×g for 5 minutes, 300 μl of supernatant was collected and evaporated to dryness under a gentle stream of nitrogen. The residue was then reconstituted with 100 μl of deionized water. […] The chromatography was achieved on a Luna C18 column (150×2 mm, 5 μm, Phenomenix, Torrance, Calif.) with a flow rate of 0.25 ml/min. The aqueous mobile phase, consisting of 10 mM ammonium acetate buffer, pH6.8, was held for 5 minutes and followed by a linear gradient of 0-50% acetonitrile over 8 minutes. Sample analysis was performed on a LC/MS/MS (TSQ7000, Thermo Finnigan, San Jose, Calif.) equipped with electrospray source.

in vivo [3] = conditions: nude, mouse, 10.6 mg/kg
[4] = human, in vivo
[5] = mice, bolus i.v. 20 mg/kg, cited from earlier work
[6] = cited from earlier work; for recommended doses: DLT neutropenia and skin rash
[7] = system: HT-29 human colorectal cancer cells grown as xenografts in nude mice; experiment: Antitumor efficacy studies in human xenografts; assay type: in vivo; conditions: for day from which tumor regressions were observed: 6-day infusion; for inhibition of tumor growth: 53-63 mg/kg
Experimental: Antitumor efficacy studies: In vivo efficacy studies were conducted using the HT-29 human colorectal cancer cells grown as xenografts in nude mice. Female athymic CD-1(nu/nu) mice were injected s.c. with 2×10^6 human colon HT-29 tumor cells. Tumor bearing animals were randomised (10 to 15 per group) and treatment started when tumor volumes reached 80 to 120 mm^3 (days 6 to 9; depending on the study). Tumor measurements, taken by callipers twice weekly, were converted to tumor volumes (in mm^3) using the standard formula, [width (mm)]^2×length (mm)×0.52. […] The pumps were implanted s.c. under sterile conditions at the site opposite to the tumor. These pumps (internal volume, 200 μl) continuously deliver test agent at a rate of 1 μl/h for 200 h (8.3 days total). Pumps were removed after 1, 3, 5 or 6 days, thus insuring continuous delivery of test agent over the course of the experiment. […] Compound efficacy was assessed at the end of the study by percentage of T/C defined as the mean treated tumor volume/mean control tumor volume×100%, with a T/C of about 40% or less being indicative of antitumor activity (J. Plowman et al., Human tumor xenograft models in NCI drug development in Teicher BA (ed) “Anticancer Drug Development Guide: Preclinical screening, clinical trials, and approval”. Humana Press Inc., Totowa, N.J. 1997;101-125). To monitor the drug-associated toxicity, mice were weighed at least twice a week and daily inspected for observable clinical signs. Statistical analysis was performed by ANOVA (ANalysis Of VAriance) or by Student's t test. Differences were considered to be significant at P<0.05.
Once we had established the optimum dose range (activity and well tolerated toxicity), a second study was performed to establish the time necessary to obtain optimum antitumor efficacy. This study was performed using 5, 10 and 20 mg/ml infused over 1, 3 and 5 days, when the tumors had reached 85 mm^3 (day 6).
Bolus administration was given by intravenous injection in the tail vein (10 ml/kg).

[8] = system: relapsed acute myeloid leukemia (AML); conditions: in vivo
[9] = system: HT-29 human colorectal carcinoma cell line; experiment: Clonogenic assay; assay type: cell-based; conditions: HT-29 clonal growth; for IC50: Homo sapiens
Experimental: Two different methods were used, the MTT colometric assay and the clonogenic assay. b)Clonogenic assay: HT-29 cells were plated on 6-well flat-bottomed plates (200-400 cells) and allowed to attach overnight. […] After the incubation period with the drug, cells were washed and fresh drug-free medium added. On day 10, cells were exposed to Crystal violet stain.

[10] = bolus administration
[11] = system: HT-29 human colorectal carcinoma cell line; experiment: MTT colometric assay; assay type: cell-based; conditions: for GI50: Homo sapiens
Experimental: Two different methods were used, the MTT colometric assay and the clonogenic assay. a)MTT colometric assay: HT-29 cells were plated at 2.5×10^3 cells/well in a 96-well tissue culture plate and allowed to attach overnight. […] After the incubation period with the drug, cells were washed and fresh drug-free medium added. On day 3, cellular proliferation was evaluated by the tetrazolium dye assay.

cytidine deaminase (CDA) = cytidine deaminase (CDA) (Homo sapiens, UniProt P32320); conditions: cited from earlier work
[12] = system: relapsed acute myeloid leukemia (AML); experiment: Phase I continuous infusion in relapsed AML: toxicity and antileukemic activity
in vivo [13] = conditions: female, mouse
Experimental: Antitumor efficacy studies: In vivo efficacy studies were conducted using the HT-29 human colorectal cancer cells grown as xenografts in nude mice. Female athymic CD-1(nu/nu) mice were injected s.c. with 2×10^6 human colon HT-29 tumor cells. Tumor bearing animals were randomised (10 to 15 per group) and treatment started when tumor volumes reached 80 to 120 mm^3 (days 6 to 9; depending on the study). Tumor measurements, taken by callipers twice weekly, were converted to tumor volumes (in mm^3) using the standard formula, [width (mm)]^2×length (mm)×0.52. […] The pumps were implanted s.c. under sterile conditions at the site opposite to the tumor. These pumps (internal volume, 200 μl) continuously deliver test agent at a rate of 1 μl/h for 200 h (8.3 days total). Pumps were removed after 1, 3, 5 or 6 days, thus insuring continuous delivery of test agent over the course of the experiment. […] To monitor the drug-associated toxicity, mice were weighed at least twice a week and daily inspected for observable clinical signs. Statistical analysis was performed by ANOVA (ANalysis Of VAriance) or by Student's t test. Differences were considered to be significant at P<0.05.

nucleoside transporters = conditions: membrane permeation not mediated by nucleoside transporters; cited from earlier work

Sequence of cytidine deaminase (CDA) (P32320 whole entry, species assumed, the tested form may be a part): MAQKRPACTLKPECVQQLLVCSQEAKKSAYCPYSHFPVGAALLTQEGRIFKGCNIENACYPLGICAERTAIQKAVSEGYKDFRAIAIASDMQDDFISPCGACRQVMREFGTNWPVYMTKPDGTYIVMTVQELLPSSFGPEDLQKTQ

Nc1ccn([C@@H]2CO[C@H](CO)O2)c(=O)n1 [troxacitabine, (−)-β-L-Dioxolane-Cytidine]
body weight loss (50 mg/ml, 3-5 days following initiation of treatment): ≤ 20%
maximum tolerated dose (MTD) (pump concentration, continuous infusion 6 days, nude mice): 50 mg/mL
Cmax [1]: ≥ 100 µM
main non-hematological toxicities (advanced solid tumors; solid tumor patients, continuous infusion): mild to moderate skin rash
DLT (advanced solid tumors; solid tumors, 2 mg/m^2/d over 3 days (total 6 mg/m^2), three patients): no DLTs observed
DLT (advanced solid tumors; solid tumors, 3 mg/m^2/d for 48 h (total 6 mg/m^2), 4 patients): no DLT
DLT's, patients (advanced solid tumors; solid tumors, 3 mg/m^2/d for 72 hr (total 9 mg/m^2), Grade 4 neutropenia, fever, Grade 3 thrombocytopenia): 2 of the 5
peak plasma concentrations with prolonged infusion [2]: 0.7 to 1.6 µM
AUC at 5 days (in vivo [3]): 18800 ng·h/mL
drug exposure above or equal to 0.4 μM [4]: 120 h
interpatient variation in observed concentrations at each protocol time-point [4]: 2-to 3 fold
Cmax ([5]; at 2 minutes, read-out: plasma Cmax): ≥ 100 µM
elimination t1/2 [5]: 0.267 h
plasma drug concentration by 60 minutes [5]: 4.5 µM
drug exposure above or equal to 0.4 μM ([6]; bolus administration): 19.3 h
Cmax plasmatic ([6]; humans, 1.5 and 1.2 mg/m^2/d, first day): 110 to 140 ng/mL
time to steady state plasma concentration ([6]; humans, 5 half-lives (5×12 hrs)): 60 h
recommended doses ([6]; humans, 30-minute infusion every 21 days): 12.5 mg/m^2 and 10 mg/m^2
recommended doses ([6]; humans, 30-minute infusion on 5 consecutive days every 4 weeks): 1.5 mg/m^2/d and 1.2 mg/m^2/d
plasma concentrations 5 minutes after drug administration ([6]; humans, administered clinical bolus doses): 0.6 to 4 µM
drug concentration less than 30 minutes after the end of infusion ([6]; humans, i.v. 10 mg/m^2): less than 1 μM
elimination t1/2 ([6]; humans, i.v. 10 mg/m^2): 13 h
time drug concentration remained above 0.1 μM ([6]; humans, i.v. 10 mg/m^2): approximately 12 hours
maximum tolerated dose in humans ([6]; i.v. administration): 10 mg/m^2
Cmax ([6]; read-out: Cmax plasmatic, humans, 1.5 and 1.2 mg/m^2/d, first day): 0.52 to 0.66 µM
Cmax ([6]; read-out: plasma Cmax, humans, i.v. 10 mg/m^2): 4.1 µM
T/C ([7]; 0.5 mg/ml pump, continuous infusion 6 days, day 31): 79%
T/C ([7]; 5 mg/ml pump, continuous infusion 6 days, day 31): 42%
antitumor activity of infusion compared with daily bolus ([7]; 10 mg/ml infusion over 6 days vs 10.6 mg/kg daily for 5 consecutive days): same antitumor activity
T/C ([7]; 10 mg/ml pump, continuous infusion 6 days, day 31): 22%
day from which tumor regressions were observed ([7]; 10 mg/ml): 29 days
tumor course ([7]; 20 mg/ml infused over 3 days): tumor stasis during the first week after treatment followed by tumor regrowth
T/C ([7]; 20 mg/ml infused over 3 days, end of study): 44%
tumor regressions ([7]; 20 mg/ml, 5-day infusion): Tumor regressions were observed from day 18 till day 28 followed by regrowth
T/C ([7]; 20 mg/ml, 5-day infusion, end of study): 27%
T/C ([7]; 50 mg/ml pump, continuous infusion 6 days, day 31): 11%
day from which tumor regressions were observed ([7]; 50 mg/ml): 21 days
inhibition of tumor growth ([7]; 3-day administration regimens (q7d×3 or 3-day infusions)): intermediate
inhibition of tumor growth ([7]; 5-6 day regimens (q1d×5 or 6-day infusions)): optimal
effect on tumor growth ([7]; one day infusion (24 h), 5, 10 and 20 mg/ml): no effect
antitumor activity ([7]; single bolus i.v. injection 63 mg/kg): low activity
hand-foot syndrome ([8]; human): Grade 1 and 2 hand-foot syndrome was also observed at all dose levels
dose-limiting Grade 3 stomatitis, patients ([8]; human, 6 days): 2 of 4
dose-limiting stomatitis, patients [8]: Two of the four
skin rash [8]: generalized mild to moderate skin rash was observed at all dose levels
change in potency when incubation time increased from 72 hr to 144 hr [9]: No further increase in potency
difference between IC50 values following 24- and 72 hr exposures [9]: 5 fold
IC50 ([9]; 24 hr exposure): 2.2 µM
IC50 ([9]; 72 hr exposure): 0.4 µM
tolerated drug systemic concentrations, mice compared with humans [10]: over 20 fold
tolerated exposures, mice compared with humans [10]: over 6 fold
potency of 72-hour versus 1 hr exposure ([11]; HT-29, MTT): 265 fold
GI50 ([11]; HT-29, 24 h, HT-29, 24 hr drug exposure): 5 µM
GI50 ([11]; HT-29, 72 h, HT-29, 72 hr drug exposure): 1 µM
GI50 ([11]; HT-29, HT-29, 1 hr drug exposure, read on day 3): 265 µM
GI50 ([11]; HT-29, HT-29, 4 hr drug exposure, read on day 3): 46 µM
deamination by cytidine deaminase (CDA) (cytidine deaminase (CDA)): resistant to deamination
bone marrow aplasia, patients ([12]; AML patients who received 40.4-60.6 mg/m^2): 10 of 17
higher cumulative doses achieved than by bolus administration ([12]; AML patients, continuous infusion): 25%
recommended dose ([12]; AML patients, continuous infusion administered over five days): 50.5 mg/m^2
bone marrow hypoplasia/aplasia ([12]; first 7 AML patients, cumulative doses ≦30.3 mg/m^2): not seen
patients who achieved remissions ([12]; first 24 AML patients treated): 4 patients
MTD at 6 days (in vivo [13]): 45 to 50 mg/kg/day
major route of cellular uptake (nucleoside transporters): passive diffusion
